Like-named read-outs stand apart in the source and are kept apart here.
Columns and labels:
M4 muscarinic receptor = target: T1, M4 muscarinic receptor (Homo sapiens, UniProt P08173); assay: Functional mobilization of intracellular calcium (FLIPR, Fluo-3), M4-CHO cells; assay type: cell-based; conditions: for Emax: read-out: M4 Efficacy
T1 construct: expressed in transfected cells; host or cells: CHO cells (M4-CHO, under puromycin, zeocin and blasticidin selection)
T1 sequence (P08173 1-479): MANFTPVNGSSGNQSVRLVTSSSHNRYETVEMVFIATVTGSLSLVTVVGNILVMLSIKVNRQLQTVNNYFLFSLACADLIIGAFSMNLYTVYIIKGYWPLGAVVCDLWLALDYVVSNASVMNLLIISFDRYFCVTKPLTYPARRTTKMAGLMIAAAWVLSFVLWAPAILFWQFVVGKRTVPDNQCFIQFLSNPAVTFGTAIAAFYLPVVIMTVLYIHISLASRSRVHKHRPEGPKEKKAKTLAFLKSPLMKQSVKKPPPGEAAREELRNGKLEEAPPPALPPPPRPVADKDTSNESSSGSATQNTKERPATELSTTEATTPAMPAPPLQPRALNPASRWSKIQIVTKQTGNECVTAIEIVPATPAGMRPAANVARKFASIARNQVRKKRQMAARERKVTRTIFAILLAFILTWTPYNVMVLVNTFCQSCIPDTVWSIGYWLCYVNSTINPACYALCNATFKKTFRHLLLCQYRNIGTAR
Outline: (§1)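 CHO lines stably carrying the muscarinic subtype, dye-loaded with Fluo-3 at 37° C for 60-90 min, receive test compound in 0.5% DMSO. Agonist effects are read directly; antagonist effects against carbachol at EC80 after 15 min pre-incubation.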

M1 muscarinic receptor = target: T2, M1 muscarinic receptor (Homo sapiens, UniProt P11229); assay: Functional mobilization of intracellular calcium (FLIPR, Fluo-3), M1-CHO cells; assay type: cell-based; conditions: for Emax: read-out: M1 Efficacy
T2 construct: expressed in transfected cells; host or cells: CHO cells (M1-CHO, under zeocin and G418 selection)
T2 sequence (P11229 1-460): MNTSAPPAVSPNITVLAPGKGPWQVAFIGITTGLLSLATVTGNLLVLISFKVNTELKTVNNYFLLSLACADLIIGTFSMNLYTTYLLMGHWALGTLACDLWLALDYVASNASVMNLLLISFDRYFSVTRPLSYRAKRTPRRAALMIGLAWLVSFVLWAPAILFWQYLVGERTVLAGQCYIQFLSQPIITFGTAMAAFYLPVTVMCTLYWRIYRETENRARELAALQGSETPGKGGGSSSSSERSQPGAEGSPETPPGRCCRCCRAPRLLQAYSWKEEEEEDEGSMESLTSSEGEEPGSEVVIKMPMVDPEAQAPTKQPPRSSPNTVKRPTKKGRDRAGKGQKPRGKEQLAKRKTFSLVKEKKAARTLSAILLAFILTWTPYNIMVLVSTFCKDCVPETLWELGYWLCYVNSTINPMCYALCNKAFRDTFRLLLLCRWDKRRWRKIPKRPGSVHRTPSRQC
Outline: as §1

[1] = compound nos. 1-454, 100% efficacy is the maximum response obtained with the Carbachol control
[2] = compound nos. 1-454, M4-CHO cells, calcium mobilization
[3] = compound nos. 1-454, M1-CHO cells, calcium mobilization
[4] = compound nos. 455-509, 100% efficacy is the maximum response obtained with the Carbachol control

SMILES	Emax (M4 muscarinic receptor; [1])	M4 Activity (M4 muscarinic receptor; [2])	Emax (M1 muscarinic receptor; [1])	M1 Activity (M1 muscarinic receptor; [3])	further results
CCON=C1CCC(N2CCC3(CC2)CN(C(C)=O)c2ccc(F)cc23)CC1 (stereo not drawn) [compound 86, 1-(1′-(4-(ethoxyimino)cyclohexyl)-5-fluorospiro[indoline-3,4′-piperidine]-1-yl)ethanone]	< 55%	+ (activity was measured to be greater than or equal to 4.0 μM)	65 to 85%	+++ (activity was measured to be less than or equal to 0.7 μM)	
CN(C)C(=O)N1CC2(CCN(C3CCN(c4nccs4)CC3)CC2)c2ccccc21 [compound 504]					Emax (M4 muscarinic receptor; [4]): 25 to 100%; M4 Activity (M4 muscarinic receptor; compounds 455-509): ++ (activity was measured to be between 2.0 μM and 5.0 μM); Emax (M1 muscarinic receptor; [4]): 25 to 100%; M1 Activity (M1 muscarinic receptor; compounds 455-509): + (activity was measured to be greater than or equal to 5.0 μM)
COCCOC(=O)N1CC2(CCN(C3CC4CCC(C3)N4C(=O)OC3CCC3)CC2)c2cc(F)ccc21 (stereo not drawn) [compound 195]	< 55%	+ (activity was measured to be greater than or equal to 4.0 μM)	< 65%	++ (activity was measured to be between 0.7 μM and 3.0 μM)	
Cc1cc(C(=O)N2CC3(CCN(C4CC5CCC(C4)N5C(=O)O[C@H]4CCOC4)CC3)c3cc(F)ccc32)nn1C (stereo partly drawn) [compound 411]					M4 Activity (M4 muscarinic receptor; compound nos. 1-454): ++ (activity was measured to be between 0.1 μM and 4.0 μM); M4 Efficacy (M4 muscarinic receptor; [1]): + (efficacy was calculated to be 55% or less); M1 Activity (M1 muscarinic receptor; compound nos. 1-454): +++ (activity was measured to be less than or equal to 0.7 μM); M1 Efficacy (M1 muscarinic receptor; [1]): + (efficacy was calculated to be 65% or less)
O=C(OC1CCC1)N1C2CCC1CC(N1CCC3(CCc4ccccc43)CC1)C2 (stereo not drawn) [compound 68]	< 55%	+ (activity was measured to be greater than or equal to 4.0 μM)	< 65%	++ (activity was measured to be between 0.7 μM and 3.0 μM)	
CCOC(=O)N1CCC(N2CCC3(CC2)CN(C(C)=O)c2ccc(-c4cccnc4)cc23)CC1 [compound 234]	55 to 70%	+++ (activity was measured to be less than or equal to 0.1 μM)	65 to 85%	+++ (activity was measured to be less than or equal to 0.7 μM)	
CCCCOC(=O)N1C2CCC1CC(N1CCC3(CC1)COc1ccc(F)cc13)C2 (stereo not drawn) [compound 286]	< 55%	+ (activity was measured to be greater than or equal to 4.0 μM)	< 65%	++ (activity was measured to be between 0.7 μM and 3.0 μM)	
CC(=O)N1CC2(CCN(C3CCC(C(C)C)CC3)CC2)c2cc(F)ccc21 (stereo not drawn) [compound 226]	< 55%	+ (activity was measured to be greater than or equal to 4.0 μM)	< 65%	+ (activity was measured to be greater than or equal to 3.0 μM)	
CC(=O)N1CC2(CCN(CC3CCCCC3)CC2)c2cc(F)ccc21 [compound 393]	< 55%		65 to 85%		M4 Activity (M4 muscarinic receptor; compound nos. 1-454): + (activity was measured to be greater than or equal to 4.0 μM); M1 Activity (M1 muscarinic receptor; compound nos. 1-454): +++ (activity was measured to be less than or equal to 0.7 μM)
COC(=O)N1CC2(CCN(C3CC4CCC(C3)N4C(=O)OC(C)C)CC2)c2cc(F)ccc21 (stereo not drawn) [compound 97]	< 55%	+ (activity was measured to be greater than or equal to 4.0 μM)	65 to 85%	+++ (activity was measured to be less than or equal to 0.7 μM)	
Cc1nsc(N2CCC(N3CCC4(CCN(C(=O)N(C)C)c5ccccc54)CC3)CC2)n1 [compound 474]					Emax (M4 muscarinic receptor; [4]): 25 to 100%; M4 Activity (M4 muscarinic receptor; compounds 455-509): ++ (activity was measured to be between 2.0 μM and 5.0 μM); Emax (M1 muscarinic receptor; [4]): > 100%; M1 Activity (M1 muscarinic receptor; compounds 455-509): +++ (activity was measured to be less than or equal to 2.0 μM)
CCNC(=O)N1C2CCC1CC(N1CCC3(CC1)COc1ccc(F)cc13)C2 (stereo not drawn) [compound 219]	< 55%	+ (activity was measured to be greater than or equal to 4.0 μM)	65 to 85%	+ (activity was measured to be greater than or equal to 3.0 μM)	
